Source: patent US20090136979A1, “Class IIA Histone Deacetylase (HDAC) Substrate” (ISTITUTO DI RICERCHE DI BIOLOGIA MOLECOLARE P. ANG, priority 2005, published 2009)
Blank lines part the entries; values can stand above or below the compound they belong to.

Experiments:
HDAC8 [1] = target: T1, HDAC8 (Homo sapiens, UniProt Q9BY41); test: Activity on Boc-L-Lys(ε-trifluoroacetyl)-MCA compared with Biomol standard substrate, HDAC8; type: biochemical; settings: HDAC8, FIG. 5
T1 sequence (Q9BY41 1-377): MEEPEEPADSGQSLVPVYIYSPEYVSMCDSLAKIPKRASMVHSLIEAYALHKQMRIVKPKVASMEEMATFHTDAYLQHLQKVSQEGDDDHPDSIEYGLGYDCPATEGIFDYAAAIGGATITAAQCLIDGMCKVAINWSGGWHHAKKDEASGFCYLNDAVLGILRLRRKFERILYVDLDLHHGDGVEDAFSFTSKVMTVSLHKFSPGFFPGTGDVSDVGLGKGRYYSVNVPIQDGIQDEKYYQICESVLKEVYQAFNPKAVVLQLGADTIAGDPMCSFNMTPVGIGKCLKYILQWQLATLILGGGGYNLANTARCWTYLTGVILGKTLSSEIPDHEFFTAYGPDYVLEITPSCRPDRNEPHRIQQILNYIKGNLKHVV
Excerpt: (§1) The activities measured on Boc-L-Lys(ε-trifluoroacetyl)-MCA were compared with activities on the Biomol standard substrate (not shown).

HDAC8 [2] = target: T1, HDAC8; settings: substrate of (recombinant) human HDAC8; cited from earlier work
HDAC from rat liver = settings: cited from earlier work
HDAC1 = HDAC1 (Homo sapiens, UniProt Q13547); test: Activity on Boc-L-Lys(ε-trifluoroacetyl)-MCA compared with Biomol standard substrate, HDAC1; type: biochemical; settings: HDAC1, FIG. 5
Excerpt: as §1

HDAC3 = HDAC3 (Homo sapiens, UniProt O15379); test: Activity on Boc-L-Lys(ε-trifluoroacetyl)-MCA compared with Biomol standard substrate, HDAC3; type: biochemical; settings: HDAC3, FIG. 5
Excerpt: as §1

HDAC6 = target: T2, HDAC6 (Homo sapiens, UniProt Q9UBN7); test: Activity on Boc-L-Lys(ε-trifluoroacetyl)-MCA compared with Biomol standard substrate, HDAC6; type: biochemical; settings: HDAC6, FIG. 5
T2 sequence (Q9UBN7 1-1215): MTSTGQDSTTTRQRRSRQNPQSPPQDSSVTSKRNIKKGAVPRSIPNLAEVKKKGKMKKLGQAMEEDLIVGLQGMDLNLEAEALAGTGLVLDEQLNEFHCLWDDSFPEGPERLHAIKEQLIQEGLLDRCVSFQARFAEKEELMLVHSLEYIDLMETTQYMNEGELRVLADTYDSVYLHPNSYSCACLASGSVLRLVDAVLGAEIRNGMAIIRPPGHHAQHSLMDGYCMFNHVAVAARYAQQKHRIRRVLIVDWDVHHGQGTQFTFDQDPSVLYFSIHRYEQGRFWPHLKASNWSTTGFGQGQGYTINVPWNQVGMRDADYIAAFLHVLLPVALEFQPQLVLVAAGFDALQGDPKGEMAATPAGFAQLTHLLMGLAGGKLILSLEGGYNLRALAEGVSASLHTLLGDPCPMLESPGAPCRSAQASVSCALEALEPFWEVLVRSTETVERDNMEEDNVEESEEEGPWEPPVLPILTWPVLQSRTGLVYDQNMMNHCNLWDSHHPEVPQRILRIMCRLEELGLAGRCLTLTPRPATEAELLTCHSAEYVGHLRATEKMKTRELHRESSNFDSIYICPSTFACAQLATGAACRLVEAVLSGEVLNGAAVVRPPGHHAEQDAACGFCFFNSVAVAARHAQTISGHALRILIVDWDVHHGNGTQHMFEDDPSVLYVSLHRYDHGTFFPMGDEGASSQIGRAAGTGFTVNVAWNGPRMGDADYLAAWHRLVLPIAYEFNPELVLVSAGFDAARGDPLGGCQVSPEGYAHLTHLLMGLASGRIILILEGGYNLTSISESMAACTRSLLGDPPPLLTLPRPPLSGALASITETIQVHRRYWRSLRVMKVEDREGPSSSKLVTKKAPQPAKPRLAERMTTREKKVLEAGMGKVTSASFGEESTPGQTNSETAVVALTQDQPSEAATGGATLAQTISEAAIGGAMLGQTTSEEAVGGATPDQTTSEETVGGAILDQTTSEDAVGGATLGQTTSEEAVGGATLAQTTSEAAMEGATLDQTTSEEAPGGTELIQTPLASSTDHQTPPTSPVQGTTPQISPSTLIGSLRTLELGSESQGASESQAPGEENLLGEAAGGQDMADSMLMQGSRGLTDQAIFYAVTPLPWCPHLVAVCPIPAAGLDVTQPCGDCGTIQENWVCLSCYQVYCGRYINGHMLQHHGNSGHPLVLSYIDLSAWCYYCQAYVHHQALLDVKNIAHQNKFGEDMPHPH
Excerpt: as §1

HDAC4-CD [3] = target: T3, HDAC4-CD (Homo sapiens, UniProt P56524); test: Activity on Boc-L-Lys(ε-trifluoroacetyl)-MCA compared with Biomol standard substrate, HDAC4-CD; type: biochemical; settings: FIG. 5
T3 construct: The HDAC4 C-terminal region from T-653 to L-1084; 6xHis; made in house; host or cells: E. coli BL21 Star (DE3)
Excerpt: as §1

HDAC4-FLAG [4] = target: T4, HDAC4-FLAG (Homo sapiens, UniProt P56524); type: binding; settings: cross-linking assay
T4 construct: the full length HDAC4protein (HDAC4-FLAG) was also analysed; FLAG (C); made in house

HDAC4-CD [5] = target: T3, HDAC4-CD; test: Inhibition of HDAC4-CD activity on Lys-Trifluoro substrate; type: biochemical; settings: HDAC4-CD 0.5 nM, FIG. 6
HDAC4-FLAG [6] = test: Enzymatic activity of HDAC4-FLAG, inhibition (Biomol assay kit and histone substrates); type: biochemical; settings: FIG. 2

T3 sequence (P56524 653-1084): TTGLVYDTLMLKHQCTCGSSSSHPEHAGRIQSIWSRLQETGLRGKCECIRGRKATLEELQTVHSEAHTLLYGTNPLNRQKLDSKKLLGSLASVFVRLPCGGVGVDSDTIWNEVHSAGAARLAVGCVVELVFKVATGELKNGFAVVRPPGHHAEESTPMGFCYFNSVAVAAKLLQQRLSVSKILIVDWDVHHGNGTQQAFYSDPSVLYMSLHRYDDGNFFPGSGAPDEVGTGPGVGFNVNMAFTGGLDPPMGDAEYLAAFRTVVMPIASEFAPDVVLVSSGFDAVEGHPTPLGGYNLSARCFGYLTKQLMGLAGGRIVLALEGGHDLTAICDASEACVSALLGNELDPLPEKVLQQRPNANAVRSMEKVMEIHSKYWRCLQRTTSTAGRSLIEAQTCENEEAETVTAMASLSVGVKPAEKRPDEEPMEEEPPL
Sequence of HDAC1 (Q13547 whole entry): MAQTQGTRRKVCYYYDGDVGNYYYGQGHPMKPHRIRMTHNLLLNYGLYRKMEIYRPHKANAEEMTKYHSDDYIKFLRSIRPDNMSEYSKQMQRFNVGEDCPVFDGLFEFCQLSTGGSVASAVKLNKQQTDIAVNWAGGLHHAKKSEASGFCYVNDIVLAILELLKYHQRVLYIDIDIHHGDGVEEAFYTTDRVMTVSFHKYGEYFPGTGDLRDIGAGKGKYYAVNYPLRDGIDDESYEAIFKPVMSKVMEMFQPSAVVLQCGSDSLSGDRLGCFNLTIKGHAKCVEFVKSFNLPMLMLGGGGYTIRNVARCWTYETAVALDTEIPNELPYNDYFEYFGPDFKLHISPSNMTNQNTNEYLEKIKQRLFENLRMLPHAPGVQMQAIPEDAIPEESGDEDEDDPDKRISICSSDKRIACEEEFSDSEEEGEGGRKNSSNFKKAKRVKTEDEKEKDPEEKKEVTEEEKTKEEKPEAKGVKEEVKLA
Sequence of HDAC3 (O15379 whole entry): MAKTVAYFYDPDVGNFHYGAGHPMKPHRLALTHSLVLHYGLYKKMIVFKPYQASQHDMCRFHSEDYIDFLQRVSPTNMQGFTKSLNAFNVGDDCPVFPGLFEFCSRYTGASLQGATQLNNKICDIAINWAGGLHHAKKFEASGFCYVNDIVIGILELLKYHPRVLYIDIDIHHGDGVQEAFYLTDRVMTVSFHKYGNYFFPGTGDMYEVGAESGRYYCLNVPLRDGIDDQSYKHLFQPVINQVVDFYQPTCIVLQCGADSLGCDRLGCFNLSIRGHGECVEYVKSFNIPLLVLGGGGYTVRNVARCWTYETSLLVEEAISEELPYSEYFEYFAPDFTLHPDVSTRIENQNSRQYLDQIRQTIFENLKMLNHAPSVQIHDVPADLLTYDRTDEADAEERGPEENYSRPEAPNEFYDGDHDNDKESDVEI
Sequence of HDAC3 (Q9Y618 whole entry partner): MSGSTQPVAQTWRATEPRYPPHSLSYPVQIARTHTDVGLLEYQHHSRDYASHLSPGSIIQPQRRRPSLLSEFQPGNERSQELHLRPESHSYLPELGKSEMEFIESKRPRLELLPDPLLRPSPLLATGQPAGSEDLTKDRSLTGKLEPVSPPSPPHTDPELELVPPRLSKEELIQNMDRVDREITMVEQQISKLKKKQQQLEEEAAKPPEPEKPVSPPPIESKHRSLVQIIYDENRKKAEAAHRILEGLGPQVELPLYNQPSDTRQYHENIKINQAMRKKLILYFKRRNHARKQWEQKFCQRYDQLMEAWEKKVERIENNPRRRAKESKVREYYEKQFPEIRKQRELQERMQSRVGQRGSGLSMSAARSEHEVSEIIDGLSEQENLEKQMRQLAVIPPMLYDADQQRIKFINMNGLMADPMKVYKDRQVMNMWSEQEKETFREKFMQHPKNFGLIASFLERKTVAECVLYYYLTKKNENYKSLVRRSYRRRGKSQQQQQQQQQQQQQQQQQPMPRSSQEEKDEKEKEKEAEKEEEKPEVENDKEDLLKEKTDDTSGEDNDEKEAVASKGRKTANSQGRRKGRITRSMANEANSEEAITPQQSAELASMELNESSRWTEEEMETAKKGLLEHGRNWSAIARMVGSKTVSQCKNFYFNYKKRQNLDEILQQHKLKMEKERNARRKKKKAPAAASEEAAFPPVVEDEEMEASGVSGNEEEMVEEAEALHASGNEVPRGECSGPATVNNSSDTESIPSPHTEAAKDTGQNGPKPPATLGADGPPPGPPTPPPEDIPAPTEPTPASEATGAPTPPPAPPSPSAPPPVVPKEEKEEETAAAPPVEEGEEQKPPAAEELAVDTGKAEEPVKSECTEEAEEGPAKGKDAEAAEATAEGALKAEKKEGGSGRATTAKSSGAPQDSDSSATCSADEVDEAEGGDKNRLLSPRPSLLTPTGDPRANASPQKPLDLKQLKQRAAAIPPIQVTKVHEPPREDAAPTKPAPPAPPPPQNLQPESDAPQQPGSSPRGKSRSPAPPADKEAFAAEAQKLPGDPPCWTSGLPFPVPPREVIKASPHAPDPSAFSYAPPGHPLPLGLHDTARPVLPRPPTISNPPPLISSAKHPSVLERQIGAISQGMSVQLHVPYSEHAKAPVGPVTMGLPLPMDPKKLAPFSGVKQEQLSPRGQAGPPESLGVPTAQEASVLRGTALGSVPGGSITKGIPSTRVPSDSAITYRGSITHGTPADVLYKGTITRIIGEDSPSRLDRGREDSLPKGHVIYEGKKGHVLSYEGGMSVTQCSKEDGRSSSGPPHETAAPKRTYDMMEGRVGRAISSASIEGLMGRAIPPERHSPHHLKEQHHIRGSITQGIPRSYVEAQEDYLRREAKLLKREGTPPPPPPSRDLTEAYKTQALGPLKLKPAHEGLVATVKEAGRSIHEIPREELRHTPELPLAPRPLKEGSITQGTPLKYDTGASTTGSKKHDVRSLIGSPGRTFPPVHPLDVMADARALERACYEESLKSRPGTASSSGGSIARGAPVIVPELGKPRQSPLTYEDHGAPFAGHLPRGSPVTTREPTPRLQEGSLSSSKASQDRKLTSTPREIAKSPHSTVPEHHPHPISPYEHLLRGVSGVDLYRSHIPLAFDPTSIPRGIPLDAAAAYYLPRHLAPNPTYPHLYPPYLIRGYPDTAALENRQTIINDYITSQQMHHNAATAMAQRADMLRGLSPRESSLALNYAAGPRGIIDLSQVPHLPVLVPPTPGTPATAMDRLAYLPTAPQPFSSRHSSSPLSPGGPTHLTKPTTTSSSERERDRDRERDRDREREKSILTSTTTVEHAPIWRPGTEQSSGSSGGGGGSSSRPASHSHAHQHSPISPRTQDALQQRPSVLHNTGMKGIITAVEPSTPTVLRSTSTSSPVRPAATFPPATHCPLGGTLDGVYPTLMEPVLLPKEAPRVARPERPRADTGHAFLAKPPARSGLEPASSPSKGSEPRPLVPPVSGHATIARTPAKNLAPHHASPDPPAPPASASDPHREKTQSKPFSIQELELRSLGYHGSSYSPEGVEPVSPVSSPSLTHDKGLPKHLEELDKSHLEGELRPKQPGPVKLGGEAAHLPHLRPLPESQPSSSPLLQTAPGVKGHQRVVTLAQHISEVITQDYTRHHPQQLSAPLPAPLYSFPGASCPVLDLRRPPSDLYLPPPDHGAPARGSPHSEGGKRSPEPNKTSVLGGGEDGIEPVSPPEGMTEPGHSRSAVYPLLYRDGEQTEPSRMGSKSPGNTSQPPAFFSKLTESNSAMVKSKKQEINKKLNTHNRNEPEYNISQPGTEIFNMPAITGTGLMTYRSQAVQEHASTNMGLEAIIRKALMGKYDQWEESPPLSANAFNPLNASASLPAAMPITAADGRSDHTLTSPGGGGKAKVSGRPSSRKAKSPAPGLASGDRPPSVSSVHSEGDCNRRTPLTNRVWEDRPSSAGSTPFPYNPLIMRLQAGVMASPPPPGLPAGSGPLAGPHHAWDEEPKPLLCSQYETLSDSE
T4 sequence (P56524 whole entry): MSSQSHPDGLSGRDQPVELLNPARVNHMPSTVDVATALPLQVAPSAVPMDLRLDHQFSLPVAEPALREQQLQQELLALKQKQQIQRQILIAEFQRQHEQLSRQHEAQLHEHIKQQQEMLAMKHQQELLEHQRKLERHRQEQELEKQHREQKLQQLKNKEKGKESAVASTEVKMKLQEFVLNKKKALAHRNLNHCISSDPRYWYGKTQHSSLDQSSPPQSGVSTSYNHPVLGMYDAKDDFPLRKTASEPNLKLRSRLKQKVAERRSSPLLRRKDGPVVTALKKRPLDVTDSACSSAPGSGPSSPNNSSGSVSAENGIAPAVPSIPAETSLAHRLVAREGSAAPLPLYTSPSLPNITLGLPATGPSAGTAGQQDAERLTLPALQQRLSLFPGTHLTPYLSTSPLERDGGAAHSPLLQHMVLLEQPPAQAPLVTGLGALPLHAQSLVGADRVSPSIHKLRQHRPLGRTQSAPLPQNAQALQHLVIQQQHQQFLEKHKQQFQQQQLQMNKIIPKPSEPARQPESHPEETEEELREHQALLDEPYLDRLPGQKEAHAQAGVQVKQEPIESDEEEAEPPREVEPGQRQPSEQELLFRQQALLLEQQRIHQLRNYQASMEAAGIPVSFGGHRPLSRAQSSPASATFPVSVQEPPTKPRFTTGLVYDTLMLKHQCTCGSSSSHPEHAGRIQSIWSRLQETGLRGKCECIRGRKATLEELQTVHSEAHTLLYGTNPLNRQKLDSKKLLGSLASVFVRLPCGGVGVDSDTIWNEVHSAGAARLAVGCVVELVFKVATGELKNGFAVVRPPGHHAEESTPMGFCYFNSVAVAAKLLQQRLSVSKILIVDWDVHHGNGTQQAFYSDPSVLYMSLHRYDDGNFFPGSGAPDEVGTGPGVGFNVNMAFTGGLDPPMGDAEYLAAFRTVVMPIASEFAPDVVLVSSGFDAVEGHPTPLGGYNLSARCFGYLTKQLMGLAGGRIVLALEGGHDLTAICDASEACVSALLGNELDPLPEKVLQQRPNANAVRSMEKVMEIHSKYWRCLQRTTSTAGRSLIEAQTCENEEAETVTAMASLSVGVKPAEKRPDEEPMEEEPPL

enzyme activity on substrate compared with Biomol standard substrate (HDAC8 [1]): work better
enzyme activity on substrate compared with Biomol standard substrate (HDAC1): did not work
enzyme activity on substrate compared with Biomol standard substrate (HDAC3): works with the same efficiency
enzyme activity on substrate compared with Biomol standard substrate (HDAC6): did not work
enzyme activity on substrate compared with Biomol standard substrate (HDAC4-CD [3]): work better
Compound: Cc1cc(=O)oc2ccc(NC(=O)[C@H](CCCCNC(=O)C(F)(F)F)NC(=O)OC(C)(C)C)cc12 [Boc-L-Lys(ε-trifluoroacetyl)-MCA, tert-Butyl [(1S)-5-(trifluoroacetylamino)-1-[[(4-methyl-2-oxo-2H-1-benzopyran-6-yl)amino]carbonyl]pentyl]-carbamic Acid Ester]
Km (HDAC8 [2]): 247 µM
conversion of substrate by rat liver HDAC (HDAC from rat liver; rat liver HDAC): did not convert

inhibition of HDAC4-CD activity on Lys-Trifluoro substrate (HDAC4-CD [5]): inhibited
Compound: O=C(/C=C/c1ccc(CN(CCO)CCc2c[nH]c3ccccc23)cc1)NO [LAQ824]
binding to HDAC4-FLAG (HDAC4-FLAG [4]): able to significantly and specifically bind

Compound: CC(=O)NCCCC[C@H](NC(=O)OC(C)(C)C)C(=O)Nc1ccc2c(C)cc(=O)oc2c1 [Boc-L-Lys(ε-acetyl)-MCA, reference compound]
Km (HDAC from rat liver; substrate of HDAC from rat liver (mixture of HDAC1, 2 and 3)): 3.7 µM

Compound: Nc1ccccc1NC(=O)c1ccc(CNC(=O)OCc2cccnc2)cc1 [MS27-275]
inhibition constants (HDAC4-FLAG [6]): good inhibition constants
